Test results: patent US20240382475A1, “Quinazoline Derivative, Or Preparation Method Therefor And Use Thereof” (Zhejiang Hisun Pharmaceutical Co., Ltd., priority 2021, published 2024)

What was measured:
[1] = test system: OCI-AML5 cells; experiment: Inhibition of OCI-AML5 cell proliferation (CellTiter-Glo); assay type: cell-based; conditions: Homo sapiens, OCI-AML-5; OCI-AML5 cells (SOS1 N233Y mutation), 120 hours
Description: The following method was used to determine the influence of the compounds of the present invention on OCI-AML5 cells proliferation. OCI-AML5 cells (containing SOS1 N233Y mutation) were purchased from Nanjing Kebai Biotechnology Co., Ltd. and cultured in MEMα medium containing 10% fetal bovine serum, 100 U penicillin, and 100 μg/mL streptomycin. The activities of the cells were determined by CellTiter-Glo® Luminescent Cell Viability Assay Kit (Promega, Art. No. G7573).
The experimental method was operated according to the steps in the kit instruction, which were briefly described as follows: the test compounds were first dissolved in DMSO to prepare storage solutions of 10 mM, and then diluted with culture mediums to prepare test samples. The final concentrations of the compounds were 10000 nM to 0.15 nM. Cells in logarithmic phase were inoculated in a 96-well cell culture plate with 1,000 cells per well, after cultured overnight in 5% CO2 incubator at 37° C., the test compounds were added to the incubator to continue the culture for 120 hours. After the culture was completed, 50 μL of CellTiter-Glo detection solution was added to each well, shaken for 5 minutes and then stood for 10 minutes. Then, a Luminescence mode was used to read the luminescence values of each well of the samples on a microplate reader.

[2] = Pharmacokinetic evaluation in ICR mice; assay type: in vivo; conditions: male, mouse, plasma, PO 10 mg/kg; for AUC(0-t): read-out: Area under curve AUC0-t; for half-life: read-out: Half-life T1/2 (converted); for Cmax: read-out: Plasma concentration Cmax
Description: (§1) ICR normal mice were used as test animals, and LC/MS/MS was used to determine the drug concentrations at different moments in plasma of ICR mice by intragastric administration. The pharmacokinetic behavior of the compounds of the present invention in ICR mice was studied to evaluate the pharmacokinetic characteristics of the above compounds.
Compound 4, Compound 26 and Compound 32.
ICR mice, male, 27.8-38 g, were purchased from Zhejiang Vital River Laboratory Animal Technology Co., Ltd.
An appropriate amount of the compound was weighed, and DMA:30% Solutol HS-15:Saline=5:5:90 (v/v/v) was used as the solvent to prepare a fully dissolved solution, and then administered to obtain a 1 mg/mL colorless solution.
The ICR mice in the intragastric group of each compound to be tested (nine mice in each group) were fasted overnight followed by intragastric administration (administration dosage was 10 mg/kg and the administration volume was 10 mL/kg), and ate 4 hours after administration.
0.1 mL of blood was collected via orbit before administration and 0.25 hour, 0.5 hour, 1 hour, 2 hours, 4 hours, 8 hours, 12 hours, and 24 hours after administration, and placed in EDTA-K2 anticoagulant tubes. The collected blood samples were placed on ice, and plasma was separated by centrifugation (centrifugation condition: 1500 g, 10 minutes). The collected plasma samples were stored at −40˜−20° C. before analysis.
(§2) LC-MS/MS was used to determine the content of the compound to be tested in mouse plasma after intragastric administration.

[3] = test system: p-ERK1/2 in DLD-1 cells; experiment: Inhibition of p-ERK1/2 in DLD-1 cells (Cisbio Advanced phospho-ERK1/2 kit); assay type: cell-based; conditions: Homo sapiens; DLD-1 cells (KRAS G13D mutation), hEGF 5 nM stimulation; read-out: IC50 (nM) Inhibition on p-ERK½ in DLD-1 cells
Description: The following method was used to determine the inhibition activities of the compounds of the present invention on p-ERK1/2 in DLD-1 cells. The Advanced phospho-ERK1/2 (Thr202/tyr2O4) kit (Art. No. 64AERPEH) from Cisbio was used in this method. Please refer to the kit instruction for detailed experimental operations. DLD-1 cells (containing KRAS G13D mutation) were purchased from the Cell Resource Center of Shanghai Institutes for Biological Sciences, Chinese Academy of Sciences.
The experimental process can be briefly described as follows: DLD-1 cells were cultured in RPMI 1640 complete medium containing 10% fetal bovine serum, 100 U penicillin, 100 μg/mL streptomycin and 1 mM Sodium Pyruvate. DLD-1 cells were plated in a 96-well plate at 30,000 cells per well, after cultured overnight in 5% CO2 incubator at 37° C. with complete culture medium. The test compounds were dissolved in DMSO to prepare storage solutions of 10 mM, and then diluted with RPMI 1640 basic mediums. 90 μL of RPMI 1640 basic mediums containing the test compounds at the corresponding concentration were added to each well. The final concentrations of the test compounds in the reaction system were 10,000 nM to 0.15 nM, and were placed in a cell culture incubator for 3 hours and 40 minutes. Subsequently, 10 μL of hEGF (purchased from Roche, Art. No. 11376454001) prepared with RPMI 1640 basic medium was added to a final concentration of 5 nM, and placed in the incubator for culturing for 20 minutes. The cell supernatant was discarded, and the cells were washed with PBS on ice-bath. Then, 45 μl of 1× cell phospho/total protein lysis buffer (component of Advanced phospho-ERK1/2 kit) was added to each well for lysis. The 96-well plate was placed on ice for 0.5 hours to lyse, and then the lysate was detected according to the instruction of the Advanced phospho-ERK1/2 (Thr202/tyr2O4) kit. Finally, the microplate reader was used in […] mode to measure the fluorescence intensity of each well emitting wavelengths of 620 nm and […] under the excitation wavelength of 304 nm, and the fluorescence intensity ratio 665/620 in each well was calculated. By comparing with the fluorescence intensity ratio of a control group (0.1% DMSO), the percentage inhibition rates of the test compounds at each concentration were calculated, and the IC50 values of the compounds were obtained by performing nonlinear regression analysis with logarithmic values of the compound concentration-inhibition rate by GraphPad Prism 5 software, which can be seen in Table 3.

[4] = Pharmacokinetic evaluation in Balb/c mice; assay type: in vivo; conditions: male, mouse, plasma, PO 10 mg/kg; for AUC(0-t): read-out: Area under curve AUC0-t; for half-life: read-out: Half-life T1/2 (converted); for Cmax: read-out: Plasma concentration Cmax
Description: as §1, with “Balb/c normal” for “ICR normal”, “of balb/c” for “of ICR”, “in Balb/c” for “in ICR”
Compound 27 and Compound 30.
Nine Balb/c normal mice, male, were evenly divided into 3 groups, with 3 mice in each group, purchased from Zhejiang Vital River Laboratory Animal Technology Co., Ltd.
An appropriate amount of the compound was weighed, and DMA:30% Solutol HS-15:Saline=5:5:90 (v/v/v) was used as the solvent to prepare a fully dissolved solution with a concentration of 1 mg/mL.
The mice in the intragastric group of each compound to be tested (nine mice in each group) were fasted overnight followed by intragastric administration (administration dosage was 10 mg/kg and the administration volume was 10 mL/kg), and ate 4 hours after administration.
0.1 mL of blood was collected via jugular vein before administration and 0.25 hour, 0.5 hour, 1 hour, 2 hours, 4 hours, 6 hours, 8 hours, and 24 hours after administration, and placed in 0.1% sodium heparin anticoagulant test tubes. The collected blood samples were placed on ice, and plasma was separated by centrifugation (centrifugation condition: 7000 g, 5 minutes). The collected plasma samples were stored at −80° C. before analysis.
as §2

| IC50 [3] | AUC(0-t) [4] | half-life [4] | Cmax [4] | Compound | IC50 [1] | AUC(0-t) [2] | half-life [2] | Cmax [2] |
| --- | --- | --- | --- | --- | --- | --- | --- | --- |
| – | – | – | – | CC(=O)c1cc2nc(C)nc(N[C@H](C)c3cccc(C#N)c3C)c2cc1N1CCC2(CC1)COC2 [Compound 26, (R)-3-(1-((7-acetyl-2-methyl-6-(2-oxa-7-azaspiro[3.5]nonan-7-yl)quinazolin-4-yl)amino)ethyl)-2-methylbenzonitrile] | 17.4 nM | 7700 ng·h/mL | 1.98 h | 2830 ng/mL |
| 31.2 nM | 4660 ng·h/mL | 4.91 h | 1150 ng/mL | COc1cc2nc(C)nc(N[C@H](C)c3cccc(C#N)c3C)c2cc1N1CCC(N2CCN(C(C)=O)CC2)CC1 [Compound 27, (R)-3-(1-((6-(4-(4-acetylpiperazin-1-yl)piperidin-1-yl)-7-methoxy-2-methylquinazolin-4-yl)amino)ethyl)-2-methylbenzonitrile] | – | – | – | – |
| – | 10800 ng·h/mL | 0.79 h | 4660 ng/mL | CCOC(=O)N1CCN(c2cc3c(N[C@H](C)c4cccc(C#N)c4C)nc(C)nc3cc2OC)CC1 [Compound 30, ethyl (R)-4-(4-((1-(3-cyano-2-methylphenyl)ethyl)amino)-7-methoxy-2-methylquinazolin-6-yl)piperazine-1-carboxylate] | – | – | – | – |
| – | – | – | – | COc1cc2nc(C)nc(N[C@H](C)c3cccc(C#N)c3C)c2cc1C1(OC)CCN(C(C)=O)CC1 [Compound 32, (R)-3-(1-((6-(1-acetyl-4-methoxypiperidin-4-yl)-7-methoxy-2-methylquinazolin-4-yl)amino)ethyl)-2-methylbenzonitrile] | – | 22100 ng·h/mL | 2.29 h | 5610 ng/mL |
